Results taken from ChEMBL document CHEMBL1201862, “PubChem BioAssay data set” (2004).
Each block holds one compound with its values, some of them ahead of it. Active and inactive are the calls of the source.

Experiments:
Cytochrome P450 2D6 = Cytochrome P450 2D6 (Homo sapiens, UniProt P10635);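 further: CYP2D6 member of a cytochrome P450 panel assay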
[1] = target: Dual specificity tyrosine-phosphorylation-regulated kinase 1A (Rattus norvegicus, UniProt Q63470); format: biochemical, Homo sapiens
[2] = decrease of insulin promoter-GFP reporter – imaging, high-content screening, mouse beta cells (AID 1628); format: functional; details: MIN6
[3] = MIN6 cell viability loss – mouse insulinoma, cytotoxicity control, dose response (AID 2122); format: functional;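 further: confirmatory high-throughput counterscreen run to flag cytotoxic compounds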
[4] = target: T1, Heat shock factor protein 1 (Mus musculus, UniProt P38532); test: decrease of HSF1-responsive luciferase luminescence – cell-based, NIH3T3, dose retest, confirmation (AID 2382); format: functional;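 further: NIH3T3 fibroblasts with HSF1-driven luciferase reporter stressed by proteasome inhibitor MG132; luminescence from HSF1-driven luciferase expression after 8 hours of MG132 stress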
T1 sequence (P38532 whole entry): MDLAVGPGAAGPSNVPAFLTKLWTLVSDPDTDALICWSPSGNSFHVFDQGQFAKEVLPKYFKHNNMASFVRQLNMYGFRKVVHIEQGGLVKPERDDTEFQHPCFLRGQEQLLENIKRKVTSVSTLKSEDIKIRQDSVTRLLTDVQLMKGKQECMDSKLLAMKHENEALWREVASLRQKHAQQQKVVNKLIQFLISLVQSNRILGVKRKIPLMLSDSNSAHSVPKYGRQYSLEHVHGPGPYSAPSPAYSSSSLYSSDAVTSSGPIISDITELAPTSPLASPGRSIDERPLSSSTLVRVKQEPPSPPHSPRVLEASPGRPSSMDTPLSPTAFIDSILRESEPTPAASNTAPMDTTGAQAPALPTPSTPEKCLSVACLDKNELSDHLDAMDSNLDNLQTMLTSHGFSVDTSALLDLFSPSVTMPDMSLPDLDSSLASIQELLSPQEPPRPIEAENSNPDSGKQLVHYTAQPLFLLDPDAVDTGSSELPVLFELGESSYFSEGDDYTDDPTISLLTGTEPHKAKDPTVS

INS1 = test: INS-1E survival protection against cytokine death – cell-based, luminescence, retest, dose response (AID 449756); format: functional; details: Rattus norvegicus;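 further: cell death triggered by IL-1 beta plus TNF-alpha plus IFN-gamma mixture; protective hits raise ATP signal compared with cytokine alone wells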
[5] = target: T2, RNA-binding protein pos-1 (Caenorhabditis elegans, UniProt G5EF15); test: disruptors of C. elegans POS-1 RNA interaction – biochemical, fluorescence polarization, dose response (AID 1964);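 further: purified POS-1 fused to maltose binding protein made in E. coli; potency of compounds blocking POS-1 binding to fluorescent RNA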
T2 sequence (G5EF15 whole entry): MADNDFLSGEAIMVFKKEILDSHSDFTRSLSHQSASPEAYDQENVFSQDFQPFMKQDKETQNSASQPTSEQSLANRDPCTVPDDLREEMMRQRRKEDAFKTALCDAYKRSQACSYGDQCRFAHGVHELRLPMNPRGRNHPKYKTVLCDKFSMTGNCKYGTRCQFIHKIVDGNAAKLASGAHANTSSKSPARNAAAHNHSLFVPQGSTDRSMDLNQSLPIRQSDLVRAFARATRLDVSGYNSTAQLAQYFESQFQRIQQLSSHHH

[6] = target: T3, Zinc finger protein mex-5 (Caenorhabditis elegans, UniProt Q9XUB2); test: potency of MEX-5 RNA-binding blockers – biochemical, C. elegans, fluorescence polarization, dose response (AID 1960)
T3 sequence (Q9XUB2 whole entry): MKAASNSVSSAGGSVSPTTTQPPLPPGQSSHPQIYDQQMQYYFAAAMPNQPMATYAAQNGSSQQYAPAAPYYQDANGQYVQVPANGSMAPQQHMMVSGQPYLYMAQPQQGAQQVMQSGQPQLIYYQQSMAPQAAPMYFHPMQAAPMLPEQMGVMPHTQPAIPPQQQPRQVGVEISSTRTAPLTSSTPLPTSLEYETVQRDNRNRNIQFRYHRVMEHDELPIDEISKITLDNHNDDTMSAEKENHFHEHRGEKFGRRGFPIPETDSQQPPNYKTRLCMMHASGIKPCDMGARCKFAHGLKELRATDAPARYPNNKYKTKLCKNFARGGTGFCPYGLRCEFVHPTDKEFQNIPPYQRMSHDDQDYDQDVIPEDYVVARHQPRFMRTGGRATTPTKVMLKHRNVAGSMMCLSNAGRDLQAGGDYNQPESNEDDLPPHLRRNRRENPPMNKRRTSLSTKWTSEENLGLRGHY

Keap1/Nrf2 = Keap1/Nrf2 (Homo sapiens, UniProt Q14145); test: disruptors of Keap1 binding to Nrf2 peptide – biochemical, fluorescence polarization, cherry-picked samples, dose response (AID 588683)
[7] = target: T4, Ubiquitin-conjugating enzyme E2 N (Homo sapiens, UniProt P61088); format: functional;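 further: Dose-response confirmation in a TR-FRET assay detecting UBC13-driven polyubiquitin chain formation, inhibition measured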
T4 sequence (P61088 whole entry): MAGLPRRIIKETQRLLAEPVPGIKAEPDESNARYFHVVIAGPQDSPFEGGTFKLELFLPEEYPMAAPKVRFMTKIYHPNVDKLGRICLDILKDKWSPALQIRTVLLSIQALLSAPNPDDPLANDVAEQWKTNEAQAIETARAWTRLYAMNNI

[8] = target: T5, Microphthalmia-associated transcription factor (Homo sapiens, UniProt O75030); test: reducers of TRPM1 reporter luminescence, concentration series – cell-based, SK-MEL-5, cherry-picked, set 3, MITF inhibitor project, dose response (AID 493073); format: functional;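 further: SK-MEL-5 melanoma cells with luciferase driven by the MITF target TRPM1 promoter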
T5 sequence (O75030 whole entry): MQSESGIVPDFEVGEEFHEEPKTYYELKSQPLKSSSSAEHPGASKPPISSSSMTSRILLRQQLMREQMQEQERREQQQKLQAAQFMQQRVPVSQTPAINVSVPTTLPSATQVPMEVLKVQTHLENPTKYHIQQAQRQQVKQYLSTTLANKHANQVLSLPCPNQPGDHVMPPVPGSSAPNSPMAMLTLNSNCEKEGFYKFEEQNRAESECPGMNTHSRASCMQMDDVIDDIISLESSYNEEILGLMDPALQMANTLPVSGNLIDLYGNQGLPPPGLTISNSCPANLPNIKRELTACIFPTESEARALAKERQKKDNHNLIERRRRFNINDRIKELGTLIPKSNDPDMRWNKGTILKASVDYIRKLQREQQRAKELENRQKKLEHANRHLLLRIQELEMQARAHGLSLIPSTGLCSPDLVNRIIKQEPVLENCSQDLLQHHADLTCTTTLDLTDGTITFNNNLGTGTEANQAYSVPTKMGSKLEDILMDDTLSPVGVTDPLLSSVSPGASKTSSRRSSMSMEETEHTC

H9c2 = test: cells; format: functional, cell-based; details: Rattus norvegicus, H9c2, Myocardium;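 further: confirmatory concentration-response retest of ultra-high-throughput screening hits for modulation of myocardial damage; cell death induced by hydrogen peroxide oxidative stress; compound pretreatment for 60 min then peroxide exposure for 2 h; potency is for protecting the cells against peroxide damage rather than for killing them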
A-375 = test: proliferation inhibition in MITF-low A375 cells – cell-based, cherry-pick samples, set 2, counter-screen for MITF modulator project, dose response (AID 540335); format: functional; details: Homo sapiens
[9] = reduction of Shn3 3'UTR-driven luciferase in osteoblasts – cell-based, Clone20 osteoblasts, firefly luciferase, cherry-picked, dose response (AID 624132); format: functional;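 further: firefly luciferase luminescence from reporter carrying the Shn3 3'UTR in osteoblasts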
[10] = loss of viability in HepG2 cells – cell-based, CellTiter-Glo, cherry-picked, cytotoxicity control for Shn3 inhibitor project, dose response (AID 624134); format: functional
[11] = non-specific 3'UTR reporter inhibition in Clone20-Shn3RL – cell-based, Renilla luciferase, cherry-picked, counter-screen for Shn3 inhibitor project, dose response (AID 624133); format: functional

Chain of Cytochrome P450 2D6 (P10635 whole entry): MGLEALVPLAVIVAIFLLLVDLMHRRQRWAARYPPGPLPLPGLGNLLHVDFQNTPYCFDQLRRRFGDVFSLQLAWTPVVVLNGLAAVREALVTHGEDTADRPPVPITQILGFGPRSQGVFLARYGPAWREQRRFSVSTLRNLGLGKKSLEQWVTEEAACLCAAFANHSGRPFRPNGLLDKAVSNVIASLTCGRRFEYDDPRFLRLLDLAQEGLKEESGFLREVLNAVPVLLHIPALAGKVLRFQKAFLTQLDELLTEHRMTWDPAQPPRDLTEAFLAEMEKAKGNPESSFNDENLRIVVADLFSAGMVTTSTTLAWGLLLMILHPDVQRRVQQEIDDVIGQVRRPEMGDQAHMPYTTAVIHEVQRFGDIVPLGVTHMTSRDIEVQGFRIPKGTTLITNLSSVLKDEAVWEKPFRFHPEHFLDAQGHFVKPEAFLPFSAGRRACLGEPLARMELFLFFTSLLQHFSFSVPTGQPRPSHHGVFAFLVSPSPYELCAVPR
Chain of Keap1/Nrf2 (Q16236 whole entry): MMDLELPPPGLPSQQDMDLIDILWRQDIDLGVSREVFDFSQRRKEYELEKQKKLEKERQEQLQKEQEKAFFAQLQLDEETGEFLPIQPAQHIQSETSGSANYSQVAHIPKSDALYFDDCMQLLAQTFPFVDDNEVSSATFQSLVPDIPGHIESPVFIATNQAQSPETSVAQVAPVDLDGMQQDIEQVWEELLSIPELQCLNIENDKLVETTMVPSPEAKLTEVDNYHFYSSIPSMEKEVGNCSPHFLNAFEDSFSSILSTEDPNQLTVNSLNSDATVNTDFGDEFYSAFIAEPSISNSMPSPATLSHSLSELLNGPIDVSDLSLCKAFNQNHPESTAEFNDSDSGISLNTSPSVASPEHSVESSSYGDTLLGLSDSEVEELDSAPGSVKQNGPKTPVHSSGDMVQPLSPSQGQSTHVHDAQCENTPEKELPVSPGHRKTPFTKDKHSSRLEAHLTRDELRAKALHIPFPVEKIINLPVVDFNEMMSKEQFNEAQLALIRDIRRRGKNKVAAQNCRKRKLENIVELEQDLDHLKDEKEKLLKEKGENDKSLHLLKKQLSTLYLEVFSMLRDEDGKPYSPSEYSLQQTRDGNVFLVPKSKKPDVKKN
Chain of Keap1/Nrf2 (Q14145 whole entry): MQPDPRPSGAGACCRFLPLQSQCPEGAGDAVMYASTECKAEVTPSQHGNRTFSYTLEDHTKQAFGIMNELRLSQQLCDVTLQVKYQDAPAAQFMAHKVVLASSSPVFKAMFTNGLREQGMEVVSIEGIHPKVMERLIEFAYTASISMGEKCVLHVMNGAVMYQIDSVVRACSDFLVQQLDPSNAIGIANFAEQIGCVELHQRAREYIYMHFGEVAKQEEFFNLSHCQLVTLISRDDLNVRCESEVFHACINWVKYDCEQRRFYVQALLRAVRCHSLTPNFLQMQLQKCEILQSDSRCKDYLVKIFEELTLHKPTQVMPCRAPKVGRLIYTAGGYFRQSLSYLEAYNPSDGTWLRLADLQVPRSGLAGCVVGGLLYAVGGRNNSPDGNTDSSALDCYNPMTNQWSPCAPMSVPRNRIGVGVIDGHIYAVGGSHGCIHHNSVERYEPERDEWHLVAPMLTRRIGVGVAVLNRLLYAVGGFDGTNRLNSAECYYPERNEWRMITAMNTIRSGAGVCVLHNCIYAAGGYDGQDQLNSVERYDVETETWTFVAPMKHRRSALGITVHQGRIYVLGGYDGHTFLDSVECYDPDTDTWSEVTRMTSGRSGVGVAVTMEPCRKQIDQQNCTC

- AC50 (Cytochrome P450 2D6): inconclusive
SMILES: c1ccc(C2OCC3(CO2)COC(c2ccccc2)OC3)cc1 (stereo not drawn)

SMILES: O=C(O)c1nn(-c2ccccc2-c2nnc(O)nc2O)c(=O)[nH]c1=O
- AC50 (Cytochrome P450 2D6): inconclusive

- AC50 [1]: 7.77 µM (active)
SMILES: O=C(Cc1c(F)cccc1Cl)Nc1nc2ccccc2s1

SMILES: Cc1ccc(Cn2c(=N)n(CC(=O)c3ccccc3)c3ccccc32)cc1
- IC50 [2]: 1.8 µM (active)
- IC50 [3]: 1.86 µM (active)
- EC50 [4]: > 195 µM (not active)
- AC50 (INS1): 7.43 µM (active)

- EC50 [5]: 158 µM (inconclusive)
- EC50 [6]: 177 µM (inconclusive)
- AC50 (Keap1/Nrf2): > 52 µM (inactive)
SMILES: CCCCOc1ccc(/C=C2/Sc3ccccc3C2=O)cc1

SMILES: CC(Oc1cccc(Br)c1)C(=O)NNC(=O)c1ccccn1 (stereo not drawn)
- IC50 [7]: > 20 µM (inactive)
- AC50 [8]: 7.18 µM (active)
- IC50 (H9c2): > 79 µM (inactive)
- AC50 (A-375): 41.2 µM (active)
- AC50 [9]: 3.36 µM (active)
- AC50 [10]: 49.4 µM (active)
- AC50 [11]: 3.19 µM (active)

- AC50 [1]: 3.08 µM (active)
SMILES: COc1cc(N2CN=c3s/c(=C\c4ccccn4)c(=O)n3C2)cc(OC)c1OC
